Test results: US20050075399A1, “Methods and kits for enhancing ability to learn in a puppy or kitten” (The Procter & Gamble Company, priority 2003, published 2005)

Assays:
Format in all cases: in vivo
purebred beagle puppies [1] = test: Three-door multiple shape testing (symbol as the cue); settings: for puppies that passed the test on their initial testing: pass = at least 80% correct
Method: (§1) A study is conducted to determine effect of compositions described herein upon the ability of puppies to learn in a training environment.
(§2) Twelve purebred beagle puppies are randomized and assigned to either Group 1 or Group 2. Each of Groups 1 and 2 contains six of the puppies. Each of the puppies is about nine weeks of age. Their respective weights are appropriate for age and body size.
(§3) Two treatment compositions are utilized for the study. These compositions are: 1) for Group 1, a nutritionally balanced food composition comprising an essential fatty acid component comprising 0.18% DHA, by weight of the composition; and 2) for Group 2, a nutritionally balanced food composition which is similar in all respects except that the essential fatty acid component comprises 0.02% DHA, by weight of the composition.
(§4) Throughout the study, the puppies are fed their respective compositions ad libitum. Treats are utilized for training purposes; the treats which are used are PURINA® Puppy Canned Formula.
Following location training, each puppy receives two days of shape training, wherein the study shapes are randomly placed on different doors simultaneously. The objective is to determine whether the puppy learns that the symbol is associated with the treat target, not the door location. Following this training, each puppy received two testing sessions to determine ability to identify the symbol as the cue. A puppy is determined to pass if at least 80% of the test is correct. Puppies that failed are given two additional days of training and are retested. A puppy is given a maximum of three attempts to pass the multiple shape testing.
Each puppy is randomly assigned a shape of either a square or a circle. The “correct” door is the door bearing the shape which is assigned to the puppy; the location of the “correct” door is systematically modified throughout the study such that the puppy must learn to identify with the shape rather than the location of the door. The puppies are trained for several days in order to learn the process of choosing the “correct” door within a time period of two minutes. Training occurs with various learning procedures, including placing a trail of treats in front of the “correct” door.
After several days of training, the learning procedures are eliminated and the puppy performs without intervention. The puppy is given two minutes to reach the “correct” door. If the puppy fails to reach the “correct” door within the two minute time period, the puppy receives an incorrect score for that attempt. If the puppy reaches the “correct” door within the two minute time period, the puppy receives a correct score for that attempt.

purebred beagle puppies [2] = test: Maze test of the ability of puppies to learn in a training environment (success criteria); settings: puppy and maternal animal
Method: as §1
Ten purebred beagle puppies are randomized and assigned to Group 1 (n=3), Group 2 (n=3), or Group 3 (n=4). Each of the puppies is about nine weeks of age. Their respective weights are appropriate for age and body size.
as §3, with “Three” for “Two”, “about 0.14%” for “0.18%”, “composition;” for “composition; and”, “comprises about 0.08% DHA, by weight of the composition; and 3) for Group 3, a nutritionally balanced food composition which is similar in all respects except that the essential fatty acid component comprises about” for “comprises”
(§5) The respective maternal animal for each puppy in Group 1 receives, ad libitum, a nutritionally balanced food composition comprising an essential fatty acid component comprising about 0.14% DHA, by weight of the composition, during gestation, nursing, or weaning (or any combination thereof) of such puppy.
as §5, with “2” for “1”, “0.08%” for “0.14%”
as §5, with “3” for “1”, “0.02%” for “0.14%”
Throughout the study, the puppies are fed their respective compositions twice daily. Treats are utilized for training purposes; the treats which are used are PURINA® Puppy Canned Formula.
The study utilizes a room having a maze constructed in general accordance with the maze illustrated in FIG. 2. Referring now to FIG. 2, Point A Crate is a starting area and contains a crate with a door that cannot be seen through. This crate door is easily opened by a study technician. The crate allows immediate entrance into the maze when the door is opened. The crate door is opened either upward or flat, or by some other means such that the maze path is not obstructed. Point B Maze Symbol contains one of two symbols (i.e., a circle and square) indicating to the trained puppy where the treat will be located. The symbol is attached at a height which is easily visualized by the puppy. Point C Treat Pan is the ending location where the treat pan will be located. Point C Treat Pan is the correct designation for a maze designated left. Point D Treat Pan is the ending location where another treat pan will be located. Point D Treat Pan is the correct designation for a maze designated right.
Prior to training, each puppy is randomly assigned two symbol-direction combinations. The possible groupings are identified below as Groups A and B:
Training with assistance takes place for one week. Each puppy is trained in accordance to whether it is a Group A puppy or a Group B puppy. For Group A puppies, the puppy is trained numerous times to learn that if a treat is placed on the circle at Point B Maze Symbol, then another treat is located to the right at Point D Treat Pan. Likewise, for Group A puppies, the puppy is trained the same number of time to learn that if a treat is placed on the square at Point B Maze Symbol, then another treat is located to the left at Point C Treat Pan. Group B puppies will follow this same outline with the exception that sessions with a circle as the symbol will go to the left and a square as the symbol will go right. […]

purebred beagle puppies [3] = test: Three-door location training test (assigned door); settings: all puppies regardless of group (0.18% DHA or 0.02% DHA food composition, ad libitum)
Method: as §1, §2, §3, §4
The study utilizes three doors of identical size and shape. Each puppy is randomly assigned to one of three doors along with a random symbol (circle or square) for location training. The objective of the study is to train the puppy to reach the “correct” door, i.e. the door bearing the shape which is assigned to the respective puppy. A box is marked with tape in front of each door. […]

[4] = Group 1 (n=6): food composition 0.18% DHA ad libitum
[5] = Group 2 (n=6): food composition 0.02% DHA ad libitum
[6] = Group 1 (n=3): food composition about 0.14% DHA
[7] = Group 2 (n=3): food composition about 0.08% DHA
[8] = Group 3 (n=4): food composition about 0.02% DHA

Structure (SMILES): CC/C=C\C/C=C\C/C=C\C/C=C\C/C=C\C/C=C\CCC(=O)O [DHA, docosahexaenoic acid]
- puppies that passed following additional training days (purebred beagle puppies [1]; [4]): 75%
- puppies that passed the test on their initial testing (purebred beagle puppies [1]; [4]): 50%
- puppies that passed following additional training days (purebred beagle puppies [1]; [5]): 45%
- puppies that passed the test on their initial testing (purebred beagle puppies [1]; [5]): 16%
- puppies that achieved a single success criteria (purebred beagle puppies [2]; [6]): 100%
- puppies that achieved two success criteria (purebred beagle puppies [2]; [6]): 66%
- puppies that achieved a single success criteria (purebred beagle puppies [2]; [7]): 66%
- puppies that achieved two success criteria (purebred beagle puppies [2]; [7]): 0%
- puppies that achieved a single success criteria (purebred beagle puppies [2]; [8]): 50%
- puppies that achieved two success criteria (purebred beagle puppies [2]; [8]): 0%
- correct scores in locating the assigned location (door) (purebred beagle puppies [3]): greater than 90%
